The record followed here is patent US10323001B2, “Compositions for modulating a kinase cascade and methods of use thereof” (Athenex, Inc., priority 2006, dated 2019).

Like-named read-outs stand apart in the source and are kept apart here.

Data set [1] in a line: 5 mg/mL DI water dissolution experiment. Format: physicochemical. More on the design: key to dissolution state: P—Particulates partially dissolved; D—Particulates fully dissolved. The note with it: for dissolution in 5 mg/mL DI water experiment: 5 mg in 1 mL DI water. On the procedure:
Dissolution experiments were performed on KX2-391 salts to provide a better understanding of the salts interaction in water. This was accomplished using a 5 mg/mL DI water dissolution experiment where 5 mg of each salt was weighed into a vial and 1 mL of DI wather was added. The solution was monitored visually with magnetic stirring over a 20 minute time period to observe the time of dissolution.

Data set [2] is described as follows: Solubility in DI water and pH 2.0 phosphate buffer. The format is physicochemical. The protocol:
The table below summarizes additional characterization data for the fumaric and maleate KX2-391.MSA salts and compares it to free base, bis-HCl, and MSA salts described above. The results in the table below were obtained using the procedures described above in Examples 5 (XRPD), 6 (DSC), 7 (TGA), and 8 (moisture-sorption).
Solubility experiments were also performed using pH 2.0 phosphate buffer and DI water pH 6.9 and KX2-391.MSA, Form A. Each vial was filled with approximately 50 mg of KX2-391.MSA, Form A and 100 μL aliquots of the corresponding solvent was added until complete dissolution was observed, followed by stirring at room temperature for one and five days. The solids obtained were isolated by filtration, dried under vacuum at room temperature and analyzed by HPLC. The initial HPLC purity of KX2-391.MSA, Form A was 99.4 (% area). The solubility by HPLC of KX2-391.MSA, Form A in phosphate buffer/RT was >500 mg/mL and HPLC purity was measured to be 99.4. The solubility by HPLC of KX2-391.MSA, Form A in DI H2O/RT was >500 mg/mL and HPLC purity was measured to be 99.4.

Data set [3] is described as follows: Moisture-sorption analysis (Hiden IGAsorp). The format is physicochemical. The note with it: 90% RH, 25° C. The protocol: Moisture-sorption experiments were performed using a Hiden IGAsorp Moisture Sorption instrument on KX2-391.MSA obtained in accordance with the process of the present invention (Example 4). First, the sample was dried at 0% Relative Humidity (RH) and 25° C. until an equilibrium weight was reached or for a maximum of four hours. The sample was then subjected to an isothermal (25° C.) adsorption scan from 10 to 90% RH in steps of 10%. The sample was allowed to equilibrate to an asymptotic weight at each point for a maximum of four hours. Following adsorption, a desorption scan from 85 to 0% RH (at 25° C.) was run in steps of −10% again allowing a maximum of four hours for equilibration to an asymptotic weight. The sample was then dried for one hour at 80° C. and the resulting solid analyzed by XRPD. […] FIG. 10 depicts percent change of water content as a function of relative humidity for KX2-391.MSA, Form A.
Moisture-sorption experiments were performed using a Hiden IGAsorp Moisture Sorption Instrument on KX2-391.2HCl obtained in accordance with the process of the present invention (Example 3). First, the sample was dried at 0% Relative Humidity (RH) and 25° C. until an equilibrium weight was reached or for a maximum of four hours. The sample was then subjected to an isothermal (25° C.) adsorption scan from 10 to 90% RH in steps of 10%. The sample was allowed to equilibrate to an asymptotic weight at each point for a maximum of four hours. Following adsorption, a desorption scan from 85 to 0% RH (at 25° C.) was run in steps of −10% again allowing a maximum of four hours for equilibration to an asymptotic weight. The sample was then dried for one hour at 80° C. and the resulting solid analyzed by XRPD.

The nature of data set [4]: Threshold solubility of salt screen 96 well plate. The note with it: DI water. On the procedure: Following each addition, the plate was shaken to encourage mixing for at least 5 minutes prior to evaluation.
Where [5] appears, read: about 5 mg in 1 mL DI water, magnetic stirring, 0 s.
Setting [6] is: about 5 mg in 1 mL DI water, magnetic stirring, 30 s.
Setting [7] is: about 5 mg in 1 mL DI water, magnetic stirring, 1 min.
The mark [8] stands for this setting: about 5 mg in 1 mL DI water, magnetic stirring, 2 min.
[9] abbreviates: about 5 mg in 1 mL DI water, magnetic stirring, 5 min.
Where [10] appears, read: about 5 mg in 1 mL DI water, magnetic stirring, 10 min (1 mL DI water added).
Where [11] appears, read: about 5 mg, after additional 1 mL DI water, 15 min.
The mark [12] stands for this setting: about 5 mg, after additional 1 mL DI water, 20 min.
Where [13] appears, read: salt screen well: 1 Equivalent of Acid, ACN.
[14] abbreviates: salt screen well: 1 Equivalent of Acid, Acetone.
[15] abbreviates: salt screen well: 1 Equivalent of Acid, Dioxane.
Where [16] appears, read: salt screen well: 1 Equivalent of Acid, EtOH.
Where [17] appears, read: salt screen well: 1 Equivalent of Acid, IPA.
The mark [18] stands for this setting: salt screen well: 1 Equivalent of Acid, THF.
Where [19] appears, read: salt screen well: 2 Equivalents of Acid, Acetone.
Where [20] appears, read: salt screen well: 2 Equivalents of Acid, Dioxane.
Where [21] appears, read: salt screen well: 2 Equivalents of Acid, THF.

For the molecule Maleate, in data set [1] (magnetic stirring), the “dissolution in 5 mg/mL DI water experiment” value is listed as “not observed to dissolve solids within 10 minutes”. Besides, the dissolution state entry in data set [1] (setting [5]), in data set [1] (setting [6]), in data set [1] (setting [7]), in data set [1] (setting [8]), in data set [1] (setting [9]) and in data set [1] (setting [10]) was “P” throughout. The dissolution state result in data set [1] (setting [11]) and in data set [1] (setting [12]) was “P” in each case. The “Solubility mg/mL” value in data set [2] (DI H2O) is recorded as “DI H20: 7.3 mg/mL”; in data set [2] (pH 2), “pH 2: 21.2 mg/mL”. The “pH of solubility sample” value in data set [2] (DI H2O, * approximate, pH paper instead of meter) is reported as “(4.5*)”; in data set [2] (pH 2 medium, * approximate, pH paper instead of meter), “(4.5*)”. Also, the “Moisture Sorption Wt % Water @ 90% RH” value in data set [3] was determined as 1.4 wt %. Moreover, the Threshold solubility rank entry in data set [4] (setting [13]), in data set [4] (setting [14]), in data set [4] (setting [15]), in data set [4] (setting [16]), in data set [4] (setting [17]) and in data set [4] (setting [18]) was “N” each time. Also, the Threshold solubility rank in data set [4] (setting [19]), in data set [4] (setting [20]) and in data set [4] (setting [21]) was 1 throughout.
Regarding `O=C(O)CC(O)C(=O)O` (stereo not shown) [Malic], the Threshold solubility rank in data set [4] (setting [15]) was 1.
Take `O=C(Cc1ccc(-c2ccc(OCCN3CCOCC3)cc2)cn1)NCc1ccccc1.O=C(O)C=CC(=O)O` [Fumaric]: the “dissolution in 5 mg/mL DI water experiment” value in data set [1] (magnetic stirring) was “not observed to dissolve solids within 10 minutes”. The dissolution state result in data set [1] (setting [5]), in data set [1] (setting [6]), in data set [1] (setting [7]), in data set [1] (setting [8]), in data set [1] (setting [9]) and in data set [1] (setting [10]) was “P” throughout. For the same molecule, the dissolution state result is “P” in data set [1] (setting [11]) and “D” in data set [1] (setting [12]). Also, the “Solubility mg/mL” value in data set [2] is “DI H20: 7.6 mg/mL”; in data set [2] (pH 2) it was “pH 2: 21.5 mg/mL”. In addition, the “pH of solubility sample” value in data set [2] and in data set [2] (pH 2) was “(4.5*)” in each case. Also, in data set [3], the “Moisture Sorption Wt % Water @ 90% RH” value is 0.5 wt %. Moreover, the Threshold solubility rank is on record as 5 in data set [4] (setting [13]); 5 in data set [4] (setting [14]); 4 in data set [4] (setting [15]); 2 in data set [4] (setting [16]); 2 in data set [4] (setting [17]); 5 in data set [4] (setting [18]). Further, the Threshold solubility rank is given as 5 in data set [4] (salt screen well: 2 Equivalents of Acid, ACN); 5 in data set [4] (setting [19]); 2 in data set [4] (setting [20]); 2 in data set [4] (salt screen well: 2 Equivalents of Acid, IPA); 5 in data set [4] (setting [21]).
`Cc1ccc(S(=O)(=O)O)cc1.O=C(Cc1ccc(-c2ccc(OCCN3CCOCC3)cc2)cn1)NCc1ccccc1` [p-TSA]: the Threshold solubility rank in data set [4] (setting [13]), in data set [4] (setting [14]), in data set [4] (setting [15]), in data set [4] (setting [16]), in data set [4] (setting [17]) and in data set [4] (setting [18]) was 5 throughout.
